# Reference: patent publication US20240041833A1, “PHARMACEUTICAL COMBINATION PRODUCT COMPRISING A PROTOPARVOVIRUS AND AN ANTIVIRAL BENZIMIDAZOLE AND USES THEREOF FOR TREATING CANCER” (priority 2020, published 2024)
# What was measured:
# [1] = tested on: SNB-19 and U-373 glioma cells; conditions: drug 4-0.156 μM in combination with H-1PV MOI 1 pfu/cell, 72 h; compared to cells infected only with H-1PV
# Method: The screening was performed with the Agilent BioCel automated workstation housed in an Ermaflux L2 biosafety cabinet (equipped with charcoal filters to trap gases). The glioma cell lines SNB-19 and U-373 were used for the screening. Cells were seeded with the BRAVO pipettor in 384 well cell culture microplate at 15% confluence in medium supplemented with 10% FBS and penicillin/streptomycin. After overnight incubation half of the plates was infected with wild-type H-1 PV at MOI of 1 plaque forming unit (pfu)/cell, the other half kept untreated. All cells were then treated with 5 concentrations of each of the 1,443 compounds (5-point dose curve incorporating a […] dilution step in duplicates, range 4-0.156 μM). […] PrestoBlue® is a cell viability indicator by using the reducing power of living cells to quantitatively measure the proliferation of cells. […] Conversion is proportional to the number of metabolically active cells and therefore can be measured quantitatively. Quantitation of fluorescent signal intensity of the cell culture supernatant was carried out using the HTS-ready Berthold MITHRAS LB 940 fluorescent plate reader at excitation and emission wavelengths of 569/586 nm (reduced resazurin form resorufin). […]
# [2] = tested on: xenograft rat model of human pancreatic carcinoma; conditions: in vivo, in combination with H-1PV; cited from earlier work
# [3] = tested on: different cancer cell lines of different origins; conditions: in vitro, in combination with H-1PV; cited from earlier work
# SNB-19 cells = experiment: Real-time detection of cell viability and proliferation (xCELLIgence); type: cell-based, human; conditions: LDV and/or H-1PV, monitored every 30 min for 150 hours
# Method: (§1) Human cancer cells were seeded into a 96-well E-plate (ACEA Biosciences, San Diego, CA, USA) at a density of 4000 cells/well. After 24 h, cells were infected or not with H-1PV and grown in the presence or absence of LDV. Growth of mock treated cells and virus infected cells was monitored in real-time every 30 min, for 6 days using the xCELLIgence System (ACEA). Cell proliferation was expressed as normalized cell index (CI), a parameter directly proportional to the number of attached cells per well and, therefore, strictly correlated with cell proliferation and viability. The growth curves represent the averages of the results of at least three replicates
# (§2) The xCELLIgence system allows the monitoring in real time of cell proliferation and viability. This system was used to confirm the anti-cancer effect of H-1PV/LDV co-treatment. Three cancer cell lines were used for these experiments, namely glioma cell lines […], and pancreatic carcinoma cell line AsPC-1. Cells were treated (or not) with H-1PV in the presence or absence of LDV. Cell proliferation was monitored every 30 min for a total of 150 hours.
# (§3) Cancer cells were seeded in a 96-well E-plate. […] Cell proliferation was monitored in real-time using the xCELLIgence system. The values in FIG. 4 are expressed as normalized cell index and plotted against time. […]
# AsPC-1 cells = experiment: as above; type: cell-based, human; conditions: LDV (1 and 4 μM) and/or H-1PV (up to MOI 100 pfu/cell), monitored for 150 hours
# Method: as §1, §2, §3
# [4] = tested on: SNB-19, U-373 and AsPC-1 cell lines; experiment: Optical microscopy analysis (IncuCyte ZOOM) of morphological/cytopathic effects; type: cell-based, human; conditions: 4 μM LDV and/or H-1PV MOI 1 (SNB-19) or 100 (U-373, AsPC-1); 4 days (96 h) post-treatment
# Method: Two glioblastoma cell lines (SNB-19 and U-373) and a pancreatic cell line (AsPC-1) displaying different susceptibility to H-1 PV infection were treated (or not) with increasing amounts of H-1PV (MOI, pfu/cell) in the presence or absence of 4 μM LDV.
# The cancer cell lines indicated in FIG. 3 were plated at the same density. After 24 h, cells were infected (or not) with H-1 PV used at the MOI (pfu/cell) of 1 (SNB-19), or 100 (U-373 and AsPC-1) in combination (or not) with 4 μM LDV. Light microscopy images were acquired using the IncuCyte ZOOM™ live cell imaging system (Essen BioScience, MI USA) at 96 h after treatment.
# [5] = tested on: U-251, BxPC-3, Panc-1, Du-145, A-549, Hop-62 and Caki-1 cancer cell lines; experiment: LDH assay of treatment-induced cell lysis (Example 6); type: cell-based, human; conditions: LDV, H-1PV or both, 96 h, seven cancer cell lines
# Method: (§4) In an lactate dehydrogenase assay (LDH assay) LDH released from a cell, e.g. due to cell lysis, oxidizes lactate to generate NADH, which then in turn reacts with a colorimetric substrate to generate a quantifiable colour change, which is directly correlated to the amount of LDH released and can, as such, used as a measure of cell lysis.
# (§5) Cancer cell lines were seeded at a density of 3,000 (U-251, BxPC-3, Panc-1, DU-145, A-549, HOP-62 and Caki-1) or 4,000 (SNB-19, AsPC-1, PC3 and U-373) cells/well in 96-well plates in 50 μl of their respective culture medium supplemented with 10% heat inactivated FBS. After 24 h, 50 μl of FBS-free medium with or without H-1PV and/or Ledipasvir (LDV; Selleck Chemicals LLC, Houston, TX, USA) was added. Cells were incubated for 3-5 days and then subjected to […] LDH assay (CytoTox 96 non-radioactive cytotoxicity assay, Promega Madison, WI, USA), according to the manufacturer's instructions. For each condition tested, six replicates were prepared of which three were used for calculating the total lysis in the presence of detergent as previously described (25).
# H-1 PV can target and kill a broad spectrum of cancer cell lines from different tumour entities. […] Treatment-induced cell lysis was analysed by LDH assay. […]
# [6] = tested on: SNB-19 (glioma), AsPC-1 (pancreatic carcinoma), and PC3 (prostate cancer) cell lines; experiment: LDH assay of treatment-induced cell lysis (Example 4); type: cell-based, human; conditions: H-1PV and/or increasing concentrations of LDV; 120 h (SNB19) or 96 h (AsPC1, PC3)
# Method: as §4, §5
# To further confirm the results shown in Examples 1-3, the oncolytic activity of H-1PV/LDV combination, was analysed by LDH assays. […]
# U-373 glioma cells = experiment: LDH assay of treatment-induced cell lysis (Example 5); type: cell-based, human; conditions: 4 μM LDV and/or increasing viral MOIs, 96 h
# Method: as §4, §5
# U-373 glioma cells treated (or not) with 4 μM LDV were infected (or not) with increasing viral MOIs (pfu/cell) and treatment-induced cell lysis was assessed by LDH assay.
# U373 glioma cells, were grown for 24 h before being treated for 96 h as indicated. […]
SMILES,interaction with H-1PV: fold increase in H-1PV cytotoxicity (PrestoBlue) [1],enhancement of H-1PV oncotoxicity [2],enhancement of H-1PV oncotoxicity [3],cell proliferation and viability (normalized cell index) (SNB-19 cells),cell proliferation and viability (normalized cell index) (AsPC-1 cells),cytotoxic / cytopathic effects and morphological changes [4],treatment-induced cell lysis (LDH) [5],treatment-induced cell lysis (LDH) [6],treatment-induced cell lysis (LDH) (U-373 glioma cells)
CN(C)CC[C@H](CSc1ccccc1)Nc1ccc(S(=O)(=O)NC(=O)c2ccc(N3CCN(Cc4ccccc4-c4ccc(Cl)cc4)CC3)cc2)cc1[N+](=O)[O-] [ABT-737],synergized with H-1PV,enhance H-1PV oncotoxicity in a synergistic manner,enhance H-1PV oncotoxicity in a synergistic manner,–,–,–,–,–,–
Oc1ccc(O)cc1 [Hydroquinone],did not interact with H-1 PV,–,–,–,–,–,–,–,–
"COC(=O)N[C@H](C(=O)N1CC2(CC2)C[C@H]1c1ncc(-c2ccc3c(c2)C(F)(F)c2cc(-c4ccc5nc([C@@H]6[C@H]7CC[C@H](C7)N6C(=O)[C@@H](NC(=O)OC)C(C)C)[nH]c5c4)ccc2-3)[nH]1)C(C)C [LDV, methyl N-[(2S)-1-[(6S)-6-[5-[9,9-difluoro-7-[2-[(1R,3S,4S)-2-[(2S)-2-(methoxycarbonylamino)-3-methylbutanoyl]-2-azabicyclo[2.2.1]heptan-3-yl]-3H-benzimidazol-5-yl]fluoren-2-yl]-1H-imidazol-2-yl]-5-azaspiro[2.4]heptan-5-yl]-3-methyl-1-oxobutan-2-yl]carbamate]",–,–,–,did not affect cell proliferation,did not affect cell proliferation,did not induce any evident cytotoxic effects,did not induced cell lysis,did not induce cell lysis,did not induce cell lysis
